Source: patent publication US8822449B2, “Substituted aminoindanes and analogs thereof, and the pharmaceutical use thereof” (Sanofi, priority 2008, dated 2014)

Molecular target: T1, sodium-proton exchanger of subtype 3 (NHE3) (Homo sapiens, UniProt P48764)
T1 construct: expressed in transfected cells
T1 sequence (P48764 26-834): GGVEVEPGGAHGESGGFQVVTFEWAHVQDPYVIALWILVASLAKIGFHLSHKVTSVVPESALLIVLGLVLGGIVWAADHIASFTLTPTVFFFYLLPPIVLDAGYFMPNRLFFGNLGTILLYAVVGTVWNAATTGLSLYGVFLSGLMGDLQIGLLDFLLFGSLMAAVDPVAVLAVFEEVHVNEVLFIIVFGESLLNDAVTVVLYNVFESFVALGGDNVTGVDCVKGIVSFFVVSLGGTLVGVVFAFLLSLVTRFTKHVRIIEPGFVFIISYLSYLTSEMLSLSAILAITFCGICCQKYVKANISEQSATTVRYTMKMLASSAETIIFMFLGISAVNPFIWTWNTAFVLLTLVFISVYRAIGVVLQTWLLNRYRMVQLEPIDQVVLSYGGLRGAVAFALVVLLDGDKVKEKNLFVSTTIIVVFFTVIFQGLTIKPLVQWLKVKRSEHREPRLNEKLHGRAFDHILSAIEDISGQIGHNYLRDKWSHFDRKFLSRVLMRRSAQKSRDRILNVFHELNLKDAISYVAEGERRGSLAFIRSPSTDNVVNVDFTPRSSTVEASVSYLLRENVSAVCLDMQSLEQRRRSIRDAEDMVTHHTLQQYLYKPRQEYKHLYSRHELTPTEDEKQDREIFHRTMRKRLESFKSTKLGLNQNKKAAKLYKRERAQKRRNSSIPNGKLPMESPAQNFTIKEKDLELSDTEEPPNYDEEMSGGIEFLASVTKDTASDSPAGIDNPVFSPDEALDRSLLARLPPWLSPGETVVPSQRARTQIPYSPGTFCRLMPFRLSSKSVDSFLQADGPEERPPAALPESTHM
Test: Recovery of intracellular pH (pHi) after acidification in LAP1 cells stably expressing NHE3 (BCECF fluorescence, FLIPR)
Assay type: cell-based
Details: LAP1 cells stably expressing NHE3; pH recovery after acidification; range 1 is % inhibition at 10 μM; read-out: Activity range (inhibitory effect on NHE3)
Procedure: In this assay, the recovery of the intracellular pH (pHi) of LAP1 cells which stably express the sodium-proton exchanger of subtype 3 (NHE3) after acidification was determined. The recovery occurs even under bicarbonate-free conditions with functional NHE3. To this end, the pHi was determined using the pH-sensitive fluorescent dye BCECF (Molecular Probes, Eugene, Oreg., USA, employing the precursors BCECF-AM). The cells were initially incubated with BCECF (5 μM BCECF-AM) in NH4Cl buffer (NH4Cl buffer: 115 mM cholineCl, 20 mM NH4Cl, 5 mM KCl, 1 mM CaCl2, 1 mM MgCl2, 20 mM Hepes, 5 mM glucose, a pH of 7.4 was adjusted with 1 M KOH). The intracellular acidification was induced by washing the cells incubated in NH4Cl buffer with NH4Cl-free buffer (133.8 mM choline chloride, 4.7 mM KCl, 1.25 mM CaCl2, 1.25 mM MgCl2, 0.97 mM K2HPO4, 0.23 mM KH2PO4, 5 mM Hepes, 5 mM glucose, a pH of 7.4 was adjusted with 1 M KOH). After the washing step, 90 μl of the NH4Cl-free buffer were left on the cells. The pH recovery was started by adding 90 μl of Na^+-containing buffer (133.8 mM NaCl, 4.7 mM KCl, 1.25 mM CaCl2, 1.25 mM MgCl2, 0.97 mM Na2HPO4, 0.23 mM NaH2PO4, 10 mM Hepes, 5 mM glucose, a pH of 7.4 was adjusted with 1 M NaOH) in a measuring instrument (FLIPR, “Fluorometric Imaging Plate Reader”, Molecular Devices, Sunnyvale, Calif., USA). The BCECF fluorescence was determined with an excitation wavelength of 498 nm and the FLIPR emission filter 1 (bandpass from 510 to 570 nm). The subsequent changes in fluorescence as a measure of pH recovery were recorded for two minutes. To calculate the NHE3-inhibitory power of the tested substances, the cells were initially investigated in buffers with which complete or absolutely no pH recovery took place. For complete pH recovery (100%), the cells were incubated in Na^+-containing buffer (see above), and to determine the 0% value were incubated in Na^+-free buffer (see above). The substances to be tested were made up in Na^+-containing buffer. The recovery of the intracellular pH at each tested concentration of a substance was expressed as percent of the maximum recovery.
The IC50 of the respective substance for NHE3 was calculated from the percentages of pH recovery using the program XLFit (idbs, Surrey, UK).

COc1ccc(C)cc1O[C@H]1c2ccccc2CC[C@@H]1N1CCC[C@@H](N)C1 (racemic) [Example 46, (R)-1-[rac-trans-(1,2)-1-(2-methoxy-5-methylphenoxy)-1,2,3,4-tetrahydronaphthalen-2-yl]piperidin-3-ylamine]
inhibition at 10 µM: 20 to 50%

NC(=O)c1ccccc1O[C@H]1c2ccccc2CC[C@@H]1N1CCC[C@H](N)C1 (racemic) [Example 373, 2-[rac-trans-(1,2)-2-((S)-3-aminopiperidin-1-yl)-1,2,3,4-tetrahydronaphthalen-1-yloxy]benzamide]
IC50: < 1000 nM

N#Cc1csc(-c2ccc(O[C@@H]3c4ccccc4C[C@H]3N3CCC[C@@H](N)C3)cc2)n1 (racemic) [Example 381, 2-{4-[rac-trans-(1,2)-2-((R)-3-aminopiperidin-1-yl)indan-1-yloxy]phenyl}thiazole-4-carbonitrile]
IC50: 1000 to 10000 nM

O=C(O[C@H]1c2ccccc2C[C@@H]1N1CCCC1)c1ccc(N2CCCC2=O)cc1 [Example 461, 4-(2-Oxopyrrolidin-1-yl)benzoic acid (1S,2S)-2-pyrrolidin-1-ylindan-1-yl ester]
inhibition at 10 µM: 20 to 50%

CN(C)C(=O)Cc1ccc(O[C@H]2c3ccccc3CC[C@@H]2N2CCC[C@H](N)C2)cc1 (racemic) [Example 382, 2-{4-[rac-trans-(1,2)-2-((S)-3-aminopiperidin-1-yl)-1,2,3,4-tetrahydronaphthalen-1-yloxy]phenyl}-N,N-dimethylacetamide]
inhibition at 10 µM: 20 to 50%

N[C@@H]1CCCN([C@@H]2Cc3ccccc3[C@H]2Oc2ccc3ccncc3c2)C1 (racemic) [Example 85, (R)-1-[rac-trans-(1,2)-1-(isoquinolin-7-yloxy)indan-2-yl]piperidin-3-ylamine]
IC50: 1000 to 10000 nM

CS(=O)(=O)c1ccc(O[C@H]2c3cc(Cl)cc(Cl)c3C[C@@H]2N2CCNC(C(F)(F)F)C2)cc1 (mixture of isomers) [Example 301, 1-[trans-(1S,2S)-4,6-dichloro-1-(4-methanesulfonylphenoxy)indan-2-yl]-3-trifluoromethylpiperazine]
inhibition at 10 µM: 20 to 50%

N[C@H]1CCCN([C@H]2CCc3ccccc3[C@@H]2Oc2cccc3[nH]nnc23)C1 (racemic) [Example 147, (S)-1-[rac-trans-(1,2)-1-(1H-benzotriazol-4-yloxy)-1,2,3,4-tetrahydronaphthalen-2-yl]piperidin-3-ylamine]
IC50: < 1000 nM

CS(=O)(=O)c1ccc(O[C@H]2c3cc(Cl)cc(Cl)c3C[C@@H]2N2CCCN(CCF)CC2)cc1 [Example 303, 1-[trans-(1S,2S)-4,6-dichloro-1-(4-methanesulfonylphenoxy)indan-2-yl]-4-(2-fluoroethyl)-[1,4]diazepane]
IC50: < 1000 nM

O=C1CCCN1c1cccc(O[C@H]2c3cc(Cl)cc(Cl)c3C[C@@H]2N2CC[C@@H](O)C2)c1 [Example 315, 1-{3-[(1S,2S)-4,6-dichloro-2-((R)-3-hydroxypyrrolidin-1-yl)indan-1-yloxy]phenyl}pyrrolidin-2-one]
IC50: 1000 to 10000 nM

N#Cc1ccc(O[C@H]2c3ccccc3CC[C@@H]2N2CCC[C@H](N)C2)c(F)c1F (racemic) [Example 528, 4-[rac-trans-(1,2)-2-((S)-3-aminopiperidin-1-yl)-1,2,3,4-tetrahydronaphthalen-1-yloxy]-2,3-difluorobenzonitrile]
IC50: 1000 to 10000 nM

COc1cc(Cl)cc(O[C@@H]2c3ccccc3C[C@H]2N2CCC(CN)CC2)c1 (racemic) [Example 612, C-{1-[rac-trans-(1,2)-1-(3-chloro-5-methoxyphenoxy)indan-2-yl]piperidin-4-yl}methylamine]
IC50: 1000 to 10000 nM

CC(=O)Nc1cccc(O[C@H]2c3ccccc3C[C@@H]2N2CCCCCC2)c1 (racemic) [Example 636, N-[3-(rac-trans-(1,2)-2-azepan-1-ylindan-1-yloxy)phenyl]acetamide]
IC50: < 1000 nM

CS(=O)(=O)c1ccc(O[C@H]2c3cc(Cl)cc(F)c3C[C@@H]2NC2CCCC2)cc1 [Example 751, [trans-(1S,2S)-6-Chloro-4-fluoro-1-(4-methanesulfonyl-phenoxy)-indan-2-yl]-cyclopentyl-amine]
IC50: 1000 to 10000 nM

CN1CCN(c2cc(O[C@H]3c4cc(Cl)cc(Cl)c4C[C@@H]3N3CC[C@@H](O)C3)ccc2Cl)C1=O [Example 311, 1-{2-chloro-5-[(1S,2S)-4,6-dichloro-2-((R)-3-hydroxypyrrolidin-1-yl)indan-1-yloxy]phenyl}-3-methylimidazolidin-2-one]
inhibition at 10 µM: 20 to 50%

O=C1OCCN1c1cccc(O[C@H]2c3ccccc3C[C@@H]2N2CCCC2)c1 (racemic) [Example 409, 3-[3-(rac-trans-(1,2)-2-pyrrolidin-1-ylindan-1-yloxy)phenyl]oxazolidin-2-one]
IC50: < 1000 nM

N[C@H]1CCCN([C@H]2CCc3ccccc3[C@@H]2Oc2cccc(OC(F)F)c2)C1 (racemic) [Example 166, (S)-1-[rac-trans-(1,2)-1-(3-difluoromethoxyphenoxy)-1,2,3,4-tetrahydronaphthalen-2-yl]piperidin-3-ylamine]
inhibition at 10 µM: 20 to 50%

NS(=O)(=O)c1ccc(O[C@@H]2c3ccccc3C[C@H]2NC2CCC2)c(F)c1 (racemic) [Example 709, 4-(rac-trans-(1,2)-2-Cyclobutylamino-indan-1-yloxy)-3-fluoro-benzenesulfonamide]
IC50: < 1000 nM

N#Cc1ccc(O[C@H]2c3ccccc3CC[C@@H]2N2CCC[C@H](N)C2)cc1F (racemic) [Example 530, 4-[rac-trans-(1,2)-2-((S)-3-aminopiperidin-1-yl)-1,2,3,4-tetrahydronaphthalen-1-yloxy]-2-fluorobenzonitrile]
inhibition at 10 µM: 20 to 50%

CS(=O)(=O)c1ccc(O[C@H]2c3cc(Cl)cc(Cl)c3C[C@@H]2N2CCC[C@@H](NCCC(F)(F)F)C2)cc1 [Example 223, {(R)-1-[trans-(1S,2S)-4,6-dichloro-1-(4-methanesulfonylphenoxy)indan-2-yl]piperidin-3-yl}-(3,3,3-trifluoropropyl)amine]
IC50: < 1000 nM

CC(=O)Nc1cccc(O[C@H]2c3cc(Cl)cc(F)c3C[C@@H]2N2CCNCC2)c1 (racemic) [Example 659, N-[3-(rac-trans-(1,2)-6-chloro-4-fluoro-2-piperazin-1-ylindan-1-yloxy)phenyl]acetamide]
IC50: < 1000 nM

CS(=O)(=O)c1ccccc1O[C@H]1c2cc(Cl)cc(Cl)c2C[C@@H]1N1CCNCC1 [Example 246, 1-[(1S,2S)-4,6-dichloro-1-(2-methanesulfonylphenoxy)indan-2-yl]piperazine]
IC50: 1000 to 10000 nM

N#Cc1ccc(O[C@H]2c3ccccc3CC[C@@H]2N2CCC[C@H](N)C2)cc1 (racemic) [Example 535, 4-[rac-trans-(1,2)-2-((S)-3-aminopiperidin-1-yl)-1,2,3,4-tetrahydronaphthalen-1-yloxy]benzonitrile]
IC50: 1000 to 10000 nM

c1cc(O[C@@H]2c3ccccc3C[C@H]2N2C[C@H]3CNC[C@H]3C2)cc(N2CCCCC2)c1 (racemic) [Example 15, 2-[rac-trans-(1,2)-1-(3-piperidin-1-ylphenoxy)indan-2-yl]octahydropyrrolo[3,4-c]pyrrole]
IC50: 1000 to 10000 nM

CS(=O)(=O)c1ccc(O[C@H]2c3cc(Cl)cc(Cl)c3C[C@@H]2N2CCN3CCC[C@H]3C2)cc1 [Example 208, (S)-2-[(S)-4-(S)-chloro-6-chloro-1-(4-methanesulfonylphenoxy)indan-2-yl]octahydropyrrolo[1,2-a]pyrazine]
inhibition at 10 µM: 20 to 50%

N[C@@H]1CCCN([C@H]2CCc3ccccc3[C@@H]2Oc2ccccc2OC(F)(F)F)C1 (racemic) [Example 50, (R)-1-[rac-trans-(1,2)-1-(2-trifluoromethoxyphenoxy)-1,2,3,4-tetrahydronaphthalen-2-yl]piperidin-3-ylamine]
inhibition at 10 µM: 20 to 50%

CC(=O)Nc1cccc(O[C@H]2c3cc(Cl)cc(Cl)c3C[C@@H]2N2CCNCC2)c1 [Example 665, N-[3-(trans-(1S,2S)-4,6-dichloro-2-piperazin-1-ylindan-1-yloxy)phenyl]acetamide]
IC50: < 1000 nM

NC(=O)c1cccc(O[C@@H]2c3ccccc3C[C@H]2N2CCC[C@H](N)C2)c1 (racemic) [Example 413, 3-[rac-trans-(1,2)-2-((S)-3-aminopiperidin-1-yl)indan-1-yloxy]benzamide]
IC50: 1000 to 10000 nM

O=C(O)COC(=O)Nc1ccc(O[C@H]2c3cc(Cl)cc(Cl)c3C[C@@H]2N2CC[C@@H](O)C2)c(Cl)c1 [Example 236, {3-chloro-4-[(1S,2S)-4,6-dichloro-2-((R)-3-hydroxypyrrolidin-1-yl)indan-1-yloxy]phenylcarbamoyloxy}acetic acid]
IC50: < 1000 nM

CCN(CC)[C@@H]1Cc2ccccc2[C@H]1Oc1ccc(CCOC)cc1 (racemic) [Example 628, Diethyl-{rac-trans-(1,2)-1-[4-(2-methoxyethyl)phenoxy]indan-2-yl}amine]
IC50: 1000 to 10000 nM
